# Legend:
# Test in all cases: relative viability (nuclei count vs DMSO), 5 days (fraction); higher = more cells survive
# [1] = compound: COC1=CC=C(C=C1)COC2=C(C=C(C=C2)CC3=CN=C(N=C3N)N)OC [GW-2580] + CS(=O)(=O)N1CCN(Cc2cc3nc(-c4cccc5[nH]ncc45)nc(N4CCOCC4)c3s2)CC1 [Pictilisib] (partner 1 µM)
# In short: (§1)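 Lung cancer cell lines in 1536-well plates were dosed by pin tool the day after seeding, either with one drug alone or with a fixed anchor-drug dose plus five library-drug doses (not always all listed) in √10 steps. After 5 days, cells were fixed and their nuclei stained in one step (final 0.05% Triton X-100, 1% formaldehyde, 1 ug/ml Hoechst), then counted on 4× images. Relative viability is the nuclei count in treated wells divided by that in vehicle wells. Values are medians of duplicate plates.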
# [2] = compound: COC1=CC=C(C=C1)COC2=C(C=C(C=C2)CC3=CN=C(N=C3N)N)OC [GW-2580] + O=C(c1cc(Cc2n[nH]c(=O)c3ccccc23)ccc1F)N1CCN(C(=O)C2CC2)CC1 [Olaparib] (partner 8 µM)
# In short: as §1
# [3] = compound: Cc1cnc(Nc2ccc(OCCN3CCCC3)cc2)nc1Nc1cccc(S(=O)(=O)NC(C)(C)C)c1 [Fedratinib] + NC(=O)Nc1cc(-c2cccc(F)c2)sc1C(=O)N[C@H]1CCCNC1 [AZD7762] (partner 0.2 µM)
# In short: as §1
# [4] = compound: COC1=CC=C(C=C1)COC2=C(C=C(C=C2)CC3=CN=C(N=C3N)N)OC [GW-2580] + COc1cccc2cc(-c3nc([C@H]4CC[C@H](C(=O)O)CC4)n4ncnc(N)c34)[nH]c12 [OSI-027] (partner 0.5 µM)
# In short: as §1
# [5] = compound: COC1=CC=C(C=C1)COC2=C(C=C(C=C2)CC3=CN=C(N=C3N)N)OC [GW-2580] + CC(C)C[C@H](NC(=O)[C@H](Cc1ccccc1)NC(=O)c1cnccn1)B(O)O [Bortezomib] (partner 0.002 µM)
# In short: as §1
Cell Line,relative viability ([1]; first compound 0.08 µM),relative viability ([1]; first compound 0.8 µM),relative viability ([1]; first compound 2.53 µM),relative viability ([1]; first compound 8 µM),relative viability ([2]; first compound 0.08 µM),relative viability ([2]; first compound 0.8 µM),relative viability ([2]; first compound 2.53 µM),relative viability ([2]; first compound 8 µM),relative viability ([3]; first compound 0.1 µM),relative viability ([3]; first compound 0.3162 µM),relative viability ([3]; first compound 1 µM),relative viability ([4]; first compound 0.08 µM),relative viability ([4]; first compound 0.8 µM),relative viability ([4]; first compound 2.53 µM),relative viability ([4]; first compound 8 µM),relative viability ([5]; first compound 0.08 µM),relative viability ([5]; first compound 0.8 µM),relative viability ([5]; first compound 2.53 µM),relative viability ([5]; first compound 8 µM)
NCI-H596,0.4,0.407,0.343,0.392,0.8,0.746,0.715,0.651,0.965,1.04,1.13,0.823,0.733,0.76,0.808,0.938,1.06,1.23,1.01
NCI-H647,0.37,0.515,,0.48,0.776,0.667,0.444,0.71,0.424,0.444,0.249,0.68,0.612,0.646,0.745,1.1,0.994,0.756,1.09
NCI-H650,0.786,0.979,0.71,0.78,0.373,0.379,0.364,0.472,1.17,0.933,0.755,0.55,0.585,0.465,0.518,0.807,1.06,0.658,0.845
NCI-H727,0.355,0.622,0.349,0.372,0.637,0.63,0.699,0.69,0.639,0.465,0.576,0.595,0.761,0.629,0.575,1.01,1.18,1.35,0.835
NCI-H838,0.569,0.462,0.326,0.614,0.906,0.938,0.838,0.94,0.961,0.913,0.906,0.413,0.428,0.472,0.431,0.943,0.831,0.691,1.02
NCI-H1355,0.476,0.43,0.274,0.421,0.804,0.836,0.669,0.691,0.646,0.707,0.612,0.378,0.466,0.37,0.35,1.24,1.38,1.06,1.16
NCI-H1437,0.465,0.514,0.378,0.387,0.672,0.662,0.631,0.602,1.13,1.13,1.09,0.943,0.864,0.889,0.85,0.654,0.569,0.518,0.516
NCI-H1651,0.65,0.707,0.597,0.599,0.175,0.183,0.196,0.197,0.502,0.404,0.435,0.804,0.753,0.748,0.896,0.953,1.08,0.89,0.942
NCI-H1666,0.55,0.653,0.316,0.573,0.758,0.757,0.794,0.737,0.751,0.836,0.807,0.941,1.12,0.911,0.77,0.727,1.2,0.791,0.89
NCI-H1734,0.491,0.478,0.431,0.436,0.65,0.589,0.585,0.636,0.709,0.512,0.515,0.617,0.65,0.582,0.537,0.976,0.995,0.775,0.967
NCI-H1755,0.489,0.461,0.321,0.372,0.984,0.905,0.737,0.785,0.422,0.47,0.43,0.757,0.676,0.686,0.703,1.03,1.1,0.883,0.852
NCI-H1792,0.279,0.272,0.171,0.223,0.596,0.929,0.255,0.44,0.58,0.774,0.483,0.763,1.14,,0.883,0.926,1.07,0.734,1.1
NCI-H1915,0.986,0.906,0.954,0.886,0.222,0.233,0.293,0.259,0.754,0.66,0.67,0.638,0.649,0.626,0.598,1,1.11,0.959,1.05
NCI-H1975,0.294,0.325,0.29,0.29,0.815,0.864,0.874,0.806,0.562,0.676,0.566,0.952,0.829,0.709,0.58,0.373,0.368,0.317,0.366
NCI-H1993,0.827,0.804,,0.655,0.985,1.07,1.06,1.04,0.816,0.694,0.688,0.656,0.559,0.55,0.561,1.27,1.33,,0.995
NCI-H2085,0.498,0.386,0.461,0.494,0.741,0.784,0.84,0.757,0.952,0.925,0.928,0.985,0.86,0.653,0.886,1.11,1.12,1.19,1.03
NCI-H2087,1.04,1.03,0.61,0.767,0.668,0.934,0.608,0.542,1.39,1.37,1.42,0.681,0.675,0.564,0.588,0.966,1.16,0.79,0.872
